Tested on: HIV-1ADA
Assay: Antiretroviral activity by reverse transcriptase (RT) activity in HIV-1 infected MDM
Assay type: cell-based
Settings: 30-100 μM; MDM challenged with HIV-1ADA >15 days after 8 hours of treatment
Description: The antiretroviral activity was determined by reverse transcriptase (RT) activity and HIV-1 p24 antigen expression in HIV-1 infected MDM. […] Overall, development of long acting targeted MVC, optionally together with reverse transcriptase, protease and/or integrase inhibitors leads to improved pharmacokinetics of cART and promote improved drug adherence and access.

Structure (SMILES): Cc1nnc(C(C)C)n1C1C[C@H]2CC[C@@H](C1)N2CC[C@H](NC(=O)C1CCC(F)(F)CC1)c1ccccc1 (stereo in doubt) [free MVC, maraviroc]
- RT activity reductions compared to untreated infected cells: 22%
